Assay [1] relates to mice. In words: Tail Suspension Test (TST). Type of assay: in vivo, mouse. As to the method: Mice were suspended by the tail. […] The immobility time was recorded during a 6 min test session.
For assay [2], the system named is C13NJ microglial cell line. In words: C13NJ wound-healing assay (NT-induced cell migration). It counts as cell-based. The note with it: 10 nM NT in the presence of 1 μM spadin.
Description: A cell-free zone was created within a semi-confluent monolayer with a pipette tip. We analyzed by time-lapse microscopy how cells repopulated the cell-free zone. The 100% of migrating cells was calculated by stimulation of cell migration with 10% of Fetal Calf Serum (FCS).
A cell-free zone was created within a semi-confluent monolayer of microglial culture by scratching cells off with a pipette tip.
Assay [3] deals with mice. Kind of assay: Staircase test. Type of assay: in vivo, mouse. Conditions: spadin i.p. 10^-5 M, diazepam i.p. 0.5 mg/kg. On the procedure:
The apparatus comprised an enclosed staircase consisted of five identical steps (2.5 cm in height×11 cm in width×7.5 cm in length), each made of black plastic. The height of the walls was constant (12.5 cm above the stairs) along the entire length of the staircase. Each mouse was placed individually on the floor of the staircase with its back to the staircase. A step was considered climbed only if the mouse placed all four paws on it. Rearing was recorded when the mouse rose on its hind legs either on the step or against the wall. The number of steps ascended and the number of rearings made in a 3-min period were recorded. Results were expressed as ratio of rearing/step numbers.

Assay [4] has as its system dentate gyrus of the mouse hippocampus. Kind of assay: Hippocampal neurogenesis (BrdU / DCX labeling). It counts as in vivo. On the procedure:
Twenty-four hours after the injection of BrdU (120 mg per kg of body weight in a 300 μl bolus), mice were euthanized and transcardially perfused with 4% cold paraformaldehyde. Serial sections of the brains were cut (40 μm) throughout the entire hippocampus on a vibratome (Leica). Every sixth section throughout the hippocampus was processed for BrdU or doublecortin (DCX) immunohistochemistry, as previously described. For each immunodetection, slides were first incubated overnight at 4° C. with a mouse monoclonal anti-BrdU antibody (1:200; Becton-Dickinson) or a goat anti-DCX (1:400, Santa Cruz Laboratories). For chromogenic immunodetection, sections were then incubated for 1 hour in biotin-conjugated species-specific secondary antibodies (1:100; Vector Laboratories) followed by a peroxidase-avidin complex solution according to the manufacturer's protocol. The peroxidase activity of immune complexes was visualized with DAB staining using the VectaStain ABC kit (Vector Laboratories). For fluorescent double-labeling, performed to determine the cell phenotype, sections were incubated overnight at 4° C. with anti-sheep BrdU (1:200, Interchim), anti-goat DCX (1:200, Santa Cruz Laboratories), or an anti-GFAP (Glial Fibrillary acidic protein, marker for astrocytes, 1:250, Dako). […] All BrdU-labeled cells in the granular cell layer and subgranular zone (SGZ) were counted in each section (n=10 and 5 mice per group) at 400× and 1000× magnification under a light microscope (Olympus) by an experimenter blinded to the study code. The total number of BrdU-positive cells per section was multiplied by 6 to obtain the total number of cells per dentate gyrus. The counting of BrdU/DCX labeled cells was performed using a Laser Scanning Confocal Microscope (TCS SP, Leica) equipped with a DMIRBE inverted microscope.

Assay [5] relates to CREB. Kind of assay: Total CREB and pCREB Western blotting of hippocampus. Conditions: 4-day treatment, i.p. 10^-5 M, hippocampus extracts. It counts as in vivo, mouse. On the procedure:
Mouse brains were dissected on ice. Isolated hippocampi (1-2 mg wet tissue/100 μl) were homogenized in a solubilization buffer containing 20 mM HEPES (pH:7.9), 0.4 M NaCl, 20% (v/v) glycerol, 1% (v/v) Nonidet P-40, 5 mM MgCl2, 0.5 mM EDTA, 0.1 mM EGTA and protease inhibitor cocktail using a dounce homogenizer. The homogenates were centrifuged 30 min at 15,000×g at 4° C. Supernatants were stored at −70° C. until further use. Protein concentrations were measured using conventional Bradford's method. Samples ([…] proteins from each experimental group) were resuspended in SDS buffer, sonicated, boiled for 5 min before loading on 10% SDS PAGE gels and electrophoresed for 2 hours at 60 mA. Proteins were then transferred from gels onto Hybond-PVDF membranes (Amersham Biosciences) in blotting buffer (156 mM Tris, 1 M glycine, PBS) for 90 min at 80 mA and blocked with 5% skim milk (Regilait) in PBS for 2 hours at room temperature. […] Total CREB or tubulin contents were determined after stripping by using 1/1000 dilution of anti-CREB antibody (Cell Signaling Technology) and 1/1000 dilution of anti-tubulin antibody (Sigma-Aldrich). […] Relative intensities of the labeled bands were analyzed by densitometric scanning using Image) imaging system. CREB activation was expressed as the ratio between pCREB and total CREB present in each sample.

In assay [6] the test system is mice. In words: Corticosterone assay after tube restraint stress. It counts as in vivo, mouse. The note with it: 30 min after 10 min tube restraint; spadin i.p. 10^-5 M. On the procedure: Mice were individually housed for at least 12 hours before blood sample collection. Serum samples, collected in the morning were obtained by retroorbital puncture before and 30 min after the end of a 10-min tube restraint. Levels of corticosterone were measured by radioimmunoassay using a commercially available kit (MP Biomedicals).

Several values for one entry are separate records, joined by “and”; a condition that tells them apart may be missing. Identical values can stand only once. No end group written: not given here.

APLPRWSGPIGVSWGLR [spadin]: in assay [1] (acute, i.v., 10^-6 M, 30 min before test), the “immobility times versus saline” value is “significantly reduced immobility times”. Also, the “effect in TST” value in assay [1] (injection in kcnk2-/- mice) is given as “did not induce any change”. The “reduction of time spent immobile” value in assay [1] (subchronic, 4 days, spadin i.v. 10^-6 M, fluoxetine 3 mg/kg) was found to be 28.1%. Also, the “migrating cells, % of number migrating with 10% FCS” value in assay [2] was determined as 6.2±1.3%. The rearing/step numbers ratio entry in assay [3] is recorded as “had no effect”. For the same sequence, the “BrdU-labelled cells expressing DCX” value in assay [4] (4-day treatment) is 85.2% and 85%. For the same sequence, the “number of BrdU-positive cells in the SGZ versus saline” value in assay [4] (4-day treatment, spadin i.p. 10^-5 M) is listed as “significantly increased by two-fold”. The “number of BrdU-positive cells versus saline” value in assay [4] (15 days) was “maintained”. Besides, in assay [5], the “stimulation of pCREB (quantification of blots)” value is recorded as 4 fold. In addition, in assay [6], the “reduction of stress-induced increase in corticosterone levels versus saline” value was 79.5%.
